According to patent publication US20070088052A1, “Sulfonamide derivatives as 5ht7 receptor antagonists” (Aston University, priority 2003, published 2007):
Marks after values point to notes of the source that are not given here.

Columns and labels:
[1] = biological target: T1, 5-HT7 receptor (Homo sapiens, UniProt P34969); test: Receptor binding assay, [3]H-5-CT; details: for 5HT-7 receptor binding data using [3]H-5-CT: stepwise screen from 10 μM, active samples diluted and re-screened, radioligand 25 pM, dropout < 35; for IC50: [3]H-5-CT binding
T1 construct: Tissues were homogenized in ice cold sucrose; from tissue; host or cells: unspecified tissue, membrane homogenate
Method: Receptor Binding Assay, ^[3]H-5-CT
The combinatorial library was screened using radiolabeled 5-carboxamidotryptamine, a selective 5-HT-7 agonist. Tissues were homogenized in ice cold sucrose (0.32 M, 25 ml) for 15 strokes at 500 rpm and centrifuged at 13000 rpm for 10 mins. The supernatant was re-centrifuged at 13000 rpm for 20 mins. The resulting pellet was re-dispersed to the required volume of buffer at 500 rpm and stored in aliquots at […].
Binding was achieved using radioligand 5-carboxamidotryptamine at 25 pM. The samples were incubated {with membranes (0.1 mg/ml)} in 20 mM Hepes, 1 mM EGTA, 5 mM MgCl2, 150 mM NaCl, at pH 6.5 for 2 hrs at RT and then centrifuged at 11000 rpm for 5 minutes. The membrane pellets were washed twice with water and the bound radioactivity was measured in a Packard Cobra Auto-gamma counter (B5005). All binding assays were carried out with SB-258719 as standard. Controls (no compound) were also added. All samples were made in duplicate and repeated twice. All compounds were initially screened for percentage inhibition at 10 μM. Samples showing an average inhibition of […] were diluted to 1 μM and re-screened and if active diluted again.

[2] = tested on: mice; test: Despair swim test (immobility time test); assay type: in vivo; details: immobility in 5 min test, drug one hour prior
From the text: Despair Swim Test (Immobility Time Test)
This reflects a state of despair, which can be reduced by several agents, which are therapeutically effective in human depression. Antidepressant drugs have the effect of reducing the duration of immobility.
Mice were brought into the laboratory at least one day before the experiment and were housed in separate cages, with free access to food and water. The mice were individually forced to swim inside a vertical Plexiglas cylinder (height: 40 cm; diameter: 18 cm, containing 15 cm of water maintained at 30° C.). After 10 min in the water the mice were removed and allowed to dry in a heated enclosure (32° C.) before being returned to their home cages. They were again replaced in the cylinder 24 hrs later and the total duration of the immobility was measured during a 5 min test. Floating behaviour during this 5 min period was reproducible in different groups of mice. An animal was judged to be immobile whenever it remained floating passively in the water in a slightly hunched but upright position, its nose just above the surface. The test drug or the standard were administered one hour prior to testing.

[3] = tested on: mice; test: Tail suspension test; assay type: in vivo; details: interperitoneal 30 min prior, immobility over 5 minutes
Method: Male mice weighting 20-25 g were used preferentially. The were housed in plastic cages for at least 10 days prior to testing in a 12 hours light cycle with food and water freely available.
Animals were transported from the housing room to the testing area in their own cages and were allowed to adapt to the new environment for 1 hour before testing. Groups of 6 animals were treated with the test compounds or the vehicle by interperitoneal injection 30 min prior to testing. For the test the mice were suspended on the edge of a shelf 58 cm above a table top by adhesive tape, placed approximately 1 cm from the tip of the tail. The duration of immobility was recorded for a period of 5 minutes. Mice were considered immobile when they hang passively and the time was recorded.

T1 sequence (P34969 whole entry): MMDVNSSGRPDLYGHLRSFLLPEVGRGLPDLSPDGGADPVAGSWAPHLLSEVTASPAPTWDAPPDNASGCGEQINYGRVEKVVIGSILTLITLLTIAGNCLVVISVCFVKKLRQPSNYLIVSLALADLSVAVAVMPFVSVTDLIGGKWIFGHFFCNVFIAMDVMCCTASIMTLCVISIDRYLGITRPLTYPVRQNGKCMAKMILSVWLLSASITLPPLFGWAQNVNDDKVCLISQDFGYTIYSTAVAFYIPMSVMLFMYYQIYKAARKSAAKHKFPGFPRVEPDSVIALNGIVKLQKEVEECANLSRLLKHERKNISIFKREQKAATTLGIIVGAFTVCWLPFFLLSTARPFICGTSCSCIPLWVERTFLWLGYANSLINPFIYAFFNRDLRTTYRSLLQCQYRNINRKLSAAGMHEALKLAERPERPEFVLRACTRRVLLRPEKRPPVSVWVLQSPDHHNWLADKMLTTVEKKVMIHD

SMILES | 5HT-7 receptor binding data using [3]H-5-CT [1] | also measured
COCCN(C(C)CCN1CCC(C)CC1)S(=O)(=O)c1ccc2ccccc2c1 (centres unmarked) [E3] | E3 * (1 micromolar) | 
CC1CCN(CCC(C)N(c2cccc3ccccc23)S(=O)(=O)c2cccc([N+](=O)[O-])c2)CC1 (centres unmarked) [I24] | I24 *** (10 nM) | 
Cc1ccc(N(C(C)CCN2CCC(C)CC2)S(=O)(=O)c2ccc(-c3ccccc3)cc2)cc1 (centres unmarked) [J20] | J20 *** (10 nM) | Forced swim test ([2]; 1 mg/kg): 42 ± 6 s; Forced swim test ([2]; 5 mg/kg): 28 ± 4 s; IC50 [1]: 61 nM; Tail suspension ([3]; 1 mg/kg): 130 ± 11 s; Tail suspension ([3]; 5 mg/kg): 92 ± 9 s
COc1cccc(N(C(C)CCN2CCC(C)CC2)S(=O)(=O)c2cccc3ccccc23)c1 (centres unmarked) [D23] | D23 *** (10 nM) | IC50 [1]: 34 nM
CC1CCN(CCC(C)N(CCN(C)C)S(=O)(=O)c2ccc(Br)cc2)CC1 (centres unmarked) [M9] | M9 * (1 micromolar) | 
COc1ccc(S(=O)(=O)N(c2cccc3ccccc23)C(C)CCN2CCC(C)CC2)cc1OC (centres unmarked) [O24] | O24 *** (10 nM) | Forced swim test ([2]; 1 mg/kg): 69 ± 7 s; Forced swim test ([2]; 5 mg/kg): 51 ± 11 s; IC50 [1]: 83 nM; Tail suspension ([3]; 1 mg/kg): 81 ± 8 s; Tail suspension ([3]; 5 mg/kg): 74 ± 9 s
Cc1cccc(S(=O)(=O)N(CCN(C)C)C(C)CCN2CCC(C)CC2)c1 (centres unmarked) [B9] | B9 * (1 micromolar) | 
CC1CCN(CCC(C)N(c2cccc3ccccc23)S(=O)(=O)Cc2ccccc2)CC1 (centres unmarked) [G24] | G24 * (1 micromolar) | 
CC1CCN(CCC(C)N(C)S(=O)(=O)c2cccc([N+](=O)[O-])c2)CC1 (centres unmarked) [I8] | I8 ** (100 nM) | 
CCCCCCCCCCCCN(C(C)CCN1CCC(C)CC1)S(=O)(=O)Cc1ccccc1 (centres unmarked) [G10] | G10 * (1 micromolar) | 
CC1CCN(CCC(C)N(c2ccccn2)S(=O)(=O)c2cccc3ccccc23)CC1 (centres unmarked) [D13] | D13 ** (100 nM) | 
CC1CCN(CCC(C)N(c2ccccc2)S(=O)(=O)c2cccc([N+](=O)[O-])c2)CC1 (centres unmarked) [I21] | I21 ** (100 nM) | 
CC1CCN(CCC(C)N(Cc2ccccc2)S(=O)(=O)c2cccc([N+](=O)[O-])c2)CC1 (centres unmarked) [I1] | I1 ** (100 nM) | 
COc1ccccc1N(C(C)CCN1CCC(C)CC1)S(=O)(=O)c1cccc(C)c1 (centres unmarked) [B16] | B16 ** (100 nM) | 
COc1cccc(N(C(C)CCN2CCC(C)CC2)S(=O)(=O)Cc2ccccc2)c1 (centres unmarked) [G23] | G23 *** (10 nM) | 
Cc1ccc(N(C(C)CCN2CCC(C)CC2)S(=O)(=O)c2cccc(C(F)(F)F)c2)cc1 (centres unmarked) [N20] | N20 ** (100 nM) | 
COCCN(C(C)CCN1CCC(C)CC1)S(=O)(=O)c1cccc(C(F)(F)F)c1 (centres unmarked) [N3] | N3 ** (100 nM) | 
COc1cccc(N(C(C)CCN2CCC(C)CC2)S(=O)(=O)c2cccc([N+](=O)[O-])c2)c1 (centres unmarked) [I23] | I23 ** (100 nM) | 
COc1ccc(S(=O)(=O)N(c2cccc3ccccc23)C(C)CCN2CCC(C)CC2)cc1 (centres unmarked) [C24] | C24 * (1 micromolar) | 
CC1CCN(CCC(C)N(Cc2ccccc2)S(=O)(=O)c2cccc3ccccc23)CC1 (centres unmarked) [D1] | D1 * (1 micromolar) | 
CC1CCN(CCC(C)N(Cc2ccccc2)S(=O)(=O)c2ccc3ccccc3c2)CC1 (centres unmarked) [E1] | E1 * (1 micromolar) | 
COc1cccc(N(C(C)CCN2CCC(C)CC2)S(=O)(=O)c2ccc(-c3ccccc3)cc2)c1 (centres unmarked) [J23] | J23 *** (10 nM) | IC50 [1]: 39 nM
COc1ccccc1N(C(C)CCN1CCC(C)CC1)S(=O)(=O)c1cccc(C(F)(F)F)c1 (centres unmarked) [N16] | N16 ** (100 nM) | 
CC(=O)c1ccc(N(C(C)CCN2CCC(C)CC2)S(=O)(=O)Cc2ccccc2)cc1 (centres unmarked) [G22] | G22 * (1 micromolar) | 
COc1ccc(S(=O)(=O)N(c2ccc(Cl)cc2)C(C)CCN2CCC(C)CC2)cc1 (centres unmarked) [C6] | C6 ** (100 nM) | 
COc1cccc(N(C(C)CCN2CCC(C)CC2)S(=O)(=O)c2cccc(C)c2)c1 (centres unmarked) [B23] | B23 *** (10 nM) | 
